Data from the supplement of paper PMC9663587.

How the values were obtained:
[1] = compound: CCN1CCN(Cc2ccc(Nc3ncc(F)c(-c4cc(F)c5nc(C)n(C(C)C)c5c4)n3)nc2)CC1; assay: increase in dead-cell fraction, 72 h; higher = more death;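 also: breast cancer cell lines in 384-well plates, stained with Hoechst plus LIVE/DEAD far red dye and imaged, cells above an LDR intensity threshold counted dead, Hoechst-negative corpses included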
LEE011/Ribociclib [2] = compound: T1, CN(C)C(=O)c1cc2cnc(Nc3ccc(N4CCNCC4)cn3)nc2n1C1CCCC1 [LEE011/Ribociclib]; assay: as above
Flavopiridol [3] = compound: T2, CN1CC[C@H](c2c(O)cc(O)c3c(=O)cc(-c4ccccc4Cl)oc23)[C@H](O)C1 [Flavopiridol]; assay: as above
[4] = compound: CC(=O)c1c(C)c2cnc(Nc3ccc(N4CCNCC4)cn3)nc2n(C2CCCC2)c1=O; assay: as above
[5] = compound: CCN1CCN(Cc2ccc(Nc3ncc(F)c(-c4cc(F)c5nc(C)n(C(C)C)c5c4)n3)nc2)CC1; assay: GR value, 72 h; higher = faster growth (1 = untreated, <0 = killing);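 also: breast cancer and non-malignant breast epithelial lines, nine half-log doses, viable cells counted by Hoechst and LIVE/DEAD dye imaging versus time-zero plates and DMSO controls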
THZ1 = compound: CN(C)C/C=C/C(=O)Nc1ccc(C(=O)Nc2cccc(Nc3ncc(Cl)c(-c4c[nH]c5ccccc45)n3)c2)cc1 [THZ1]; assay: as above
LEE011/Ribociclib [6] = compound: T1, LEE011/Ribociclib; assay: as above
Neratinib/HKI272 = compound: CCOc1cc2ncc(C#N)c(Nc3ccc(OCc4ccccn4)c(Cl)c3)c2cc1NC(=O)/C=C/CN(C)C [Neratinib/HKI272]; assay: as above
Flavopiridol [7] = compound: T2, Flavopiridol; assay: as above
[8] = compound: CCc1cnn2c(NCc3ccc[n+]([O-])c3)cc(N3CCCC[C@H]3CCO)nc12; assay: as above
BSJ-03-123 = compound: CC(=O)c1c(C)c2cnc(Nc3ccc(N4CCN(CCOCCOCCOCCNC(=O)COc5cccc6c5C(=O)N(C5CCC(=O)NC5=O)C6=O)CC4)cn3)nc2n(C2CCCC2)c1=O [BSJ-03-123]; assay: as above
[9] = compound: CC(=O)c1c(C)c2cnc(Nc3ccc(N4CCNCC4)cn3)nc2n(C2CCCC2)c1=O; assay: as above

BT474
increase in dead-cell fraction ([1]; 0.001 µM): -0.005
increase in dead-cell fraction ([1]; 0.003162 µM): -0.0017
increase in dead-cell fraction ([1]; 0.01 µM): 0.0057
increase in dead-cell fraction ([1]; 0.03162 µM): 0.0071
increase in dead-cell fraction ([1]; 0.1 µM): 0.0213
increase in dead-cell fraction ([1]; 0.3162 µM): 0.01
increase in dead-cell fraction ([1]; 1 µM): 0.0104
increase in dead-cell fraction ([1]; 3.162 µM): 0.0016
increase in dead-cell fraction ([1]; 10 µM): 0.0194
increase in dead-cell fraction (LEE011/Ribociclib [2]; 0.001 µM): 0.0109
increase in dead-cell fraction (LEE011/Ribociclib [2]; 0.003162 µM): 0.0057
increase in dead-cell fraction (LEE011/Ribociclib [2]; 0.01 µM): 0.0072
increase in dead-cell fraction (LEE011/Ribociclib [2]; 0.03162 µM): 0.0158
increase in dead-cell fraction (LEE011/Ribociclib [2]; 0.1 µM): 0.0086
increase in dead-cell fraction (LEE011/Ribociclib [2]; 0.3162 µM): 0.0122
increase in dead-cell fraction (LEE011/Ribociclib [2]; 1 µM): 0.0254
increase in dead-cell fraction (LEE011/Ribociclib [2]; 3.162 µM): 0.0157
increase in dead-cell fraction (LEE011/Ribociclib [2]; 10 µM): 0.0109
increase in dead-cell fraction (Flavopiridol [3]; 0.0001 µM): 0.0042
increase in dead-cell fraction (Flavopiridol [3]; 0.0003162 µM): 0.0024
increase in dead-cell fraction (Flavopiridol [3]; 0.001 µM): -0.0008
increase in dead-cell fraction (Flavopiridol [3]; 0.003162 µM): 0.0046
increase in dead-cell fraction (Flavopiridol [3]; 0.01 µM): -0.0017
increase in dead-cell fraction (Flavopiridol [3]; 0.03162 µM): 0.003
increase in dead-cell fraction (Flavopiridol [3]; 0.1 µM): 0.0067
increase in dead-cell fraction (Flavopiridol [3]; 0.3162 µM): 0.0397
increase in dead-cell fraction (Flavopiridol [3]; 1 µM): 0.274
increase in dead-cell fraction ([4]; 0.0003162 µM): -0.0048
increase in dead-cell fraction ([4]; 0.001 µM): -0.0003
increase in dead-cell fraction ([4]; 0.003162 µM): -0.0027
increase in dead-cell fraction ([4]; 0.01 µM): 0.0006
increase in dead-cell fraction ([4]; 0.03162 µM): 0.0074
increase in dead-cell fraction ([4]; 0.1 µM): 0.0103
increase in dead-cell fraction ([4]; 0.3162 µM): 0.0169
increase in dead-cell fraction ([4]; 1 µM): 0.0196
increase in dead-cell fraction ([4]; 3.162 µM): 0.0256
GR value ([5]; 0.001 µM): 1.01 GR
GR value ([5]; 0.003162 µM): 0.837 GR
GR value ([5]; 0.01 µM): 0.806 GR
GR value ([5]; 0.03162 µM): 0.594 GR
GR value ([5]; 0.1 µM): 0.62 GR
GR value ([5]; 0.3162 µM): 0.536 GR
GR value ([5]; 1 µM): 0.577 GR
GR value ([5]; 3.162 µM): 0.696 GR
GR value ([5]; 10 µM): 0.274 GR
GR value (THZ1; 0.0001 µM): 1 GR
GR value (THZ1; 0.0003162 µM): 0.971 GR
GR value (THZ1; 0.001 µM): 0.687 GR
GR value (THZ1; 0.003162 µM): 0.659 GR
GR value (THZ1; 0.01 µM): 0.571 GR
GR value (THZ1; 0.03162 µM): 0.441 GR
GR value (THZ1; 0.1 µM): -0.627 GR
GR value (THZ1; 0.3162 µM): -0.683 GR
GR value (THZ1; 1 µM): -0.617 GR
GR value (LEE011/Ribociclib [6]; 0.001 µM): 0.773 GR
GR value (LEE011/Ribociclib [6]; 0.003162 µM): 0.676 GR
GR value (LEE011/Ribociclib [6]; 0.01 µM): 0.849 GR
GR value (LEE011/Ribociclib [6]; 0.03162 µM): 0.637 GR
GR value (LEE011/Ribociclib [6]; 0.1 µM): 0.674 GR
GR value (LEE011/Ribociclib [6]; 0.3162 µM): 0.447 GR
GR value (LEE011/Ribociclib [6]; 1 µM): 0.532 GR
GR value (LEE011/Ribociclib [6]; 3.162 µM): 0.6 GR
GR value (LEE011/Ribociclib [6]; 10 µM): 0.711 GR
GR value (Neratinib/HKI272; 0.0003162 µM): 0.989 GR
GR value (Neratinib/HKI272; 0.001 µM): 0.784 GR
GR value (Neratinib/HKI272; 0.003162 µM): -0.125 GR
GR value (Neratinib/HKI272; 0.01 µM): -0.734 GR
GR value (Neratinib/HKI272; 0.03162 µM): -0.825 GR
GR value (Neratinib/HKI272; 0.1 µM): -0.86 GR
GR value (Neratinib/HKI272; 0.3162 µM): -0.874 GR
GR value (Neratinib/HKI272; 1 µM): -0.895 GR
GR value (Neratinib/HKI272; 3.162 µM): -0.922 GR
GR value (Flavopiridol [7]; 0.0001 µM): 1.17 GR
GR value (Flavopiridol [7]; 0.0003162 µM): 0.998 GR
GR value (Flavopiridol [7]; 0.001 µM): 0.895 GR
GR value (Flavopiridol [7]; 0.003162 µM): 0.878 GR
GR value (Flavopiridol [7]; 0.01 µM): 0.801 GR
GR value (Flavopiridol [7]; 0.03162 µM): 0.959 GR
GR value (Flavopiridol [7]; 0.1 µM): 0.935 GR
GR value (Flavopiridol [7]; 0.3162 µM): 0.154 GR
GR value (Flavopiridol [7]; 1 µM): -0.753 GR
GR value ([8]; 0.0001 µM): 1.02 GR
GR value ([8]; 0.0003162 µM): 0.963 GR
GR value ([8]; 0.001 µM): 1.17 GR
GR value ([8]; 0.003162 µM): 1.12 GR
GR value ([8]; 0.01 µM): 0.918 GR
GR value ([8]; 0.03162 µM): -0.569 GR
GR value ([8]; 0.1 µM): -0.753 GR
GR value ([8]; 0.3162 µM): -0.769 GR
GR value ([8]; 1 µM): -0.75 GR
GR value (BSJ-03-123; 0.001 µM): 1.01 GR
GR value (BSJ-03-123; 0.003162 µM): 0.599 GR
GR value (BSJ-03-123; 0.01 µM): 0.685 GR
GR value (BSJ-03-123; 0.03162 µM): 0.727 GR
GR value (BSJ-03-123; 0.1 µM): 0.515 GR
GR value (BSJ-03-123; 0.3162 µM): 0.523 GR
GR value (BSJ-03-123; 1 µM): 0.364 GR
GR value (BSJ-03-123; 3.162 µM): 0.386 GR
GR value (BSJ-03-123; 10 µM): 0.0116 GR
GR value ([9]; 0.0003162 µM): 1.12 GR
GR value ([9]; 0.001 µM): 1.05 GR
GR value ([9]; 0.003162 µM): 1.11 GR
GR value ([9]; 0.01 µM): 0.918 GR
GR value ([9]; 0.03162 µM): 0.735 GR
GR value ([9]; 0.1 µM): 0.668 GR
GR value ([9]; 0.3162 µM): 0.619 GR
GR value ([9]; 1 µM): 0.611 GR
GR value ([9]; 3.162 µM): 0.544 GR
